Results published in ChEMBL document CHEMBL1201862, “PubChem BioAssay data set” (2004).
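Briefly, cells in 96-well plates were exposed to five compound concentrations for 48 h, and endpoints were estimated by linear interpolation. Abbreviation: GI50, concentration required for 50% inhibition of growth.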 The source made the active and inactive calls. Cut-off read from the data, not from the text of the source: active = GI50 up to about 1.1 µM and inactive = higher.

Tests used:
Test in all cases: NCI-60 cell line screen, 48 h
[1] = system: SK-MEL-28
[2] = system: TK-10
[3] = system: SF-295
[4] = system: NCI-H522
[5] = system: SK-OV-3
[6] = system: SF-268
[7] = system: PC-3
[8] = system: SNB-75
[9] = system: CCRF-CEM
[10] = system: SW-620
[11] = system: NCI-H226
[12] = system: OVCAR-3
[13] = system: SNB-19
[14] = system: SF-539
[15] = system: OVCAR-4
[16] = system: IGROV-1
[17] = system: MDA-MB-435
[18] = system: K562
[19] = system: SR
[20] = system: RXF 393

Structure (SMILES) | GI50 [1] | GI50 [2] | GI50 [3] | GI50 [4] | GI50 [5] | GI50 [6] | GI50 [7] | GI50 [8] | GI50 [9] | GI50 [10] | GI50 [11] | GI50 [12] | GI50 [13] | GI50 [14] | GI50 [15] | GI50 [16] | GI50 [17] | GI50 [18] | GI50 [19] | GI50 [20]
CC(C)OC1=C(CC2(C)OCCO2)C(=O)C12OCCO2 | > 100 µM (inactive) | > 100 µM (inactive) | > 100 µM (inactive) | 40.4 µM (inactive) | > 100 µM (inactive) | > 100 µM (inactive) | > 100 µM (inactive) | > 100 µM (inactive) | > 100 µM (inactive) | > 100 µM (inactive) | > 100 µM (inactive) | > 100 µM (inactive) | > 100 µM (inactive) | > 100 µM (inactive) | > 100 µM (inactive) | > 100 µM (inactive) | > 100 µM (inactive) | – | – | –
N#Cc1c(Cl)cccc1Oc1ccc(S(=O)(=O)/N=C(\NN)Nc2ccc(Cl)cc2)cc1 | 31.8 µM (inactive) | 26.9 µM (inactive) | 24.2 µM (inactive) | – | 32.3 µM (inactive) | 22.8 µM (inactive) | 23.6 µM (inactive) | 21.6 µM (inactive) | – | 41.9 µM (inactive) | 17.4 µM (inactive) | 19.7 µM (inactive) | 41.1 µM (inactive) | 17.7 µM (inactive) | 26.4 µM (inactive) | 20.1 µM (inactive) | – | 34.8 µM (inactive) | 0.0177 µM (active) | 19.1 µM (inactive)
CSc1ccc(/C=C2\N=C(c3ccccc3)N(c3nc4ccc(Sc5ccccc5)cc4[nH]3)C2=O)cc1 | 18.9 µM (inactive) | 16.9 µM (inactive) | 14.3 µM (inactive) | 15.9 µM (inactive) | 14.7 µM (inactive) | 27.6 µM (inactive) | 21.8 µM (inactive) | 18.1 µM (inactive) | 27.4 µM (inactive) | 17.9 µM (inactive) | – | 2.01 µM (inactive) | 24.9 µM (inactive) | – | 30.9 µM (inactive) | 36.5 µM (inactive) | 5.28 µM (inactive) | 14 µM (inactive) | – | 17.4 µM (inactive)
N#CC(C#N)=CNC(=S)Nc1ccc(S(=O)(=O)Nc2nccs2)cc1 | > 100 µM (inactive) | > 100 µM (inactive) | > 100 µM (inactive) | – | > 100 µM (inactive) | > 100 µM (inactive) | – | > 100 µM (inactive) | – | > 100 µM (inactive) | > 100 µM (inactive) | > 100 µM (inactive) | > 100 µM (inactive) | > 100 µM (inactive) | > 100 µM (inactive) | > 100 µM (inactive) | > 100 µM (inactive) | – | – | > 100 µM (inactive)
CCOP(=O)(O)CC1OC(CO)C(O)C1O (stereo not drawn) | > 100 µM (inactive) | > 100 µM (inactive) | > 100 µM (inactive) | > 100 µM (inactive) | > 100 µM (inactive) | > 100 µM (inactive) | > 100 µM (inactive) | > 100 µM (inactive) | > 100 µM (inactive) | > 100 µM (inactive) | > 100 µM (inactive) | > 100 µM (inactive) | > 100 µM (inactive) | > 100 µM (inactive) | – | > 100 µM (inactive) | – | > 100 µM (inactive) | – | > 100 µM (inactive)
N#Cc1nc(-c2ccccc2O)oc1N | > 100 µM (inactive) | 63.8 µM (inactive) | – | – | > 100 µM (inactive) | 64.3 µM (inactive) | 91.2 µM (inactive) | – | 16.4 µM (inactive) | 65 µM (inactive) | – | – | > 100 µM (inactive) | – | – | 40 µM (inactive) | 99.8 µM (inactive) | 29.9 µM (inactive) | – | 55.7 µM (inactive)
Cc1ccc2c(=O)c(C(=O)N(CCO)CCO)c[nH]c2n1 | > 100 µM (inactive) | > 100 µM (inactive) | > 100 µM (inactive) | > 100 µM (inactive) | – | > 100 µM (inactive) | > 100 µM (inactive) | – | > 100 µM (inactive) | > 100 µM (inactive) | > 100 µM (inactive) | > 100 µM (inactive) | > 100 µM (inactive) | – | > 100 µM (inactive) | > 100 µM (inactive) | > 100 µM (inactive) | > 100 µM (inactive) | – | > 100 µM (inactive)
Cc1ccc(S(=O)(=O)NNC2(NS(=O)(=O)c3ccc(Cl)cc3)C(Cl)=C(Cl)C(=O)c3ccccc32)cc1 (stereo not drawn) | 25.7 µM (inactive) | 16.8 µM (inactive) | 20.9 µM (inactive) | 21.7 µM (inactive) | 16.9 µM (inactive) | 14 µM (inactive) | 16.7 µM (inactive) | – | 22.9 µM (inactive) | 26 µM (inactive) | – | 16.4 µM (inactive) | 16.3 µM (inactive) | 21.2 µM (inactive) | 16.1 µM (inactive) | 14.7 µM (inactive) | 18.8 µM (inactive) | 7.93 µM (inactive) | – | 17 µM (inactive)
